One data set is described as follows: in vitro. The note with it: human, hela cells, % viability.
In the case of `CNC(=O)c1nn(CCCc2ccc(OC)cc2)c2ccccc12` [CBK105842], the viability (in general, a read-out of living cells in per cent, often relative to untreated cells) at 28.5 h, 10 µM was 109%.

Consider `COCCNc1nc(-c2ccc3c(c2)OCO3)ccc1C(=O)N(C)CCN(C)C` [CBK105915], for which the viability at 28.5 h, 10 µM is 103%.

Turning to `COCCNc1nc(-c2cccc(Cl)c2Cl)ccc1C(=O)N(C)CCN(C)C` [CBK105922], the viability at 28.5 h, 10 µM turned out to be 98.3%.

Turning to `COCCNc1nc(-c2ccc3[nH]ccc3c2)ccc1C(=O)N1CCN(C)CC1` [CBK105956], the viability at 28.5 h, 10 µM was 92.2%.

Turning to `COCCNc1nc(-c2cc(C(C)C)ccc2OC)ccc1C(=O)NCCNC(C)=O` [CBK105985], the viability at 28.5 h, 10 µM was 96.6%.

Take `CNC(=O)c1ccc(-c2ccc(C)c(C)c2)nc1NCCOC` [CBK105999]: the viability at 28.5 h, 10 µM was determined as 96.6%.

For `CNC(=O)c1ccc(-c2cccc(OC(F)(F)F)c2)nc1NCCOC` [CBK106000], the viability at 28.5 h, 10 µM is 96.4%.

Regarding `CNC(=O)c1ccc(-c2ccccc2C)nc1NCCOC` [CBK106007], the viability at 28.5 h, 10 µM is 99.7%.

`COCCNC(=O)c1ccc(-c2ccc(OC)cc2)nc1N1CCN(C(=O)c2ccco2)CC1` [CBK106010]: the viability at 28.5 h, 10 µM is 88.1%.

Consider `CC(=O)Nc1cccc(-c2ccc(C(=O)NCc3ccc(F)cc3)c(N3CCN(C(=O)c4ccco4)CC3)n2)c1` [CBK106012], for which the viability at 28.5 h, 10 µM was found to be 85.5%.

On to `COc1cccc(-c2ccc(C(=O)NCc3ccccc3SC)c(N3CCN(C(=O)c4ccco4)CC3)n2)c1` [CBK106025], for which the viability at 28.5 h, 10 µM amounted to 94.3%.

Regarding `COc1cccc(NC(=O)c2ccc(-c3cc(C(F)(F)F)cc(C(F)(F)F)c3)nc2N(C)C)c1` [CBK106028], the viability at 28.5 h, 10 µM was found to be 119%.

`COCCNC(=O)c1ccc(-c2cccc(Cl)c2Cl)nc1N(C)C` [CBK106057]: the viability at 28.5 h, 10 µM amounted to 89.4%.

`CN(C)CCN(C)C(=O)c1ccc(-c2ccccc2)nc1N(C)C` [CBK106070]: the viability at 28.5 h, 10 µM was 88.1%.

Take `CC(=O)c1ccc(-c2ccc(C(=O)N(C)CCN(C)C)c(N(C)C)n2)s1` [CBK106071]: the viability at 28.5 h, 10 µM came out at 85.6%.

Take `CN(C)CCN(C)C(=O)c1ccc(-c2ccc3c(c2)OCO3)nc1N(C)C` [CBK106072]: the viability at 28.5 h, 10 µM turned out to be 92.7%.

For the molecule `CN(C)CCN(C)C(=O)c1ccc(-c2cccc(N(C)C)c2)nc1N(C)C` [CBK106077], the viability at 28.5 h, 10 µM was 89.6%.

With `CN(C)CCN(C)C(=O)c1ccc(-c2cccc(OC(F)(F)F)c2)nc1N(C)C` [CBK106081], the viability at 28.5 h, 10 µM was found to be 90.3%.

On to `Cc1csc(-c2ccc(C(=O)N(C)CCN(C)C)c(N(C)C)n2)c1` [CBK106088], for which the viability at 28.5 h, 10 µM amounted to 94.1%.

For the molecule `COCc1cccc(-c2ccc(C(=O)N(C)CCN(C)C)c(N(C)C)n2)c1` [CBK106091], the viability at 28.5 h, 10 µM was 103%.

As for `CN1CCN(C(=O)c2ccc(-c3ccc(N4CCOCC4)cc3)nc2N(C)C)CC1` [CBK106114], the viability at 28.5 h, 10 µM was determined as 90%.

Take `CN1CCN(C(=O)c2ccc(-c3ccccc3)nc2N(C)C)CC1` [CBK106115]: the viability at 28.5 h, 10 µM came to 84.4%.

As for `CNC(=O)c1ccc(-c2ccc3[nH]ccc3c2)nc1N(C)C` [CBK106146], the viability at 28.5 h, 10 µM came out at 90.9%.

In the case of `CNC(=O)c1ccc(-c2cc(C)cs2)nc1N(C)C` [CBK106150], the viability at 28.5 h, 10 µM is 86.8%.

For `CC(=O)c1ccc(-c2ccc(C(=O)N3CCN(C)CC3)c(N3CCOCC3)n2)s1` [CBK106181], the viability at 28.5 h, 10 µM is 96.3%.

Regarding `Cc1ccc(C(=O)NCc2nc3ccccc3[nH]2)c(N2CCOCC2)n1` [CBK106200], the viability at 28.5 h, 10 µM worked out at 88.4%.

Regarding `Cc1ccc(C(=O)NCCN2CCOCC2)c(N2CCOCC2)n1` [CBK106201], the viability at 28.5 h, 10 µM was found to be 87%.

As for `Cc1ccc(C(=O)NCc2ccc3c(c2)CCO3)c(N2CCOCC2)n1` [CBK106202], the viability at 28.5 h, 10 µM stood at 88.8%.

For `CNC(=O)c1ccc(-c2ccccc2OC)nc1N1CCOCC1` [CBK106210], the viability at 28.5 h, 10 µM amounted to 87.4%.

Turning to `CNC(=O)c1cccc(NC(=O)c2ccc(C)nc2N2CCOCC2)c1` [CBK106223], the viability at 28.5 h, 10 µM is 95.1%.

Turning to `CSc1ccccc1CNC(=O)c1ccc(C)nc1N1CCOCC1` [CBK106224], the viability at 28.5 h, 10 µM is 91.9%.

Consider `COCCNC(=O)c1ccc(-c2cc(C(C)C)ccc2OC)nc1NCC1CC1` [CBK106256], for which the viability at 28.5 h, 10 µM turned out to be 94.1%.

Take `Cc1csc(-c2ccc(C(=O)N(C)CCN(C)C)c(NCC3CC3)n2)c1` [CBK106279]: the viability at 28.5 h, 10 µM turned out to be 84.2%.

`CNC(=O)c1ccc(-c2ccc(N3CCOCC3)cc2)nc1NCC1CC1` [CBK106305]: the viability at 28.5 h, 10 µM was determined as 102%.

Take `CNC(=O)c1ccc(-c2cc(OC)c(OC)c(OC)c2)nc1NCC1CC1` [CBK106312]: the viability at 28.5 h, 10 µM worked out at 101%.

As for `CNC(=O)c1ccc(-c2cccc(COC)c2)nc1NCC1CC1` [CBK106322], the viability at 28.5 h, 10 µM is 90.7%.

In the case of `COCCNC(=O)c1ccc(-c2ccccc2C)nc1NC(C)=O` [CBK106325], the viability at 28.5 h, 10 µM came to 109%.

With `CC(=O)N(C)c1nc(-c2ccccc2C)ccc1C(=O)NC1CCCCC1` [CBK106333], the viability at 28.5 h, 10 µM came out at 96.9%.

Regarding `CC(=O)N(C)c1nc(-c2ccccc2C)ccc1C(=O)N(C)C` [CBK106350], the viability at 28.5 h, 10 µM came to 89%.

For `O=C(NCc1nc2ccccc2[nH]1)c1cc(-c2ccc(Cl)cc2)cnc1NCc1ccc2c(c1)OCO2` [CBK106377], the viability at 28.5 h, 10 µM turned out to be 102%.

Take `O=C(NCc1ccco1)c1cc(-c2ccc3[nH]ccc3c2)cnc1NCCOc1ccccc1` [CBK106388]: the viability at 28.5 h, 10 µM was determined as 89.9%.

Consider `CNC(=O)c1cccc(NC(=O)c2cc(-c3ccc(O)cc3)cnc2N(C)C)c1` [CBK106397], for which the viability at 28.5 h, 10 µM was 89.6%.

Turning to `O=C(O)c1cccc(-c2cnc(NCC3CC3)c(C(=O)NCC(F)(F)F)c2)c1` [CBK106420], the viability at 28.5 h, 10 µM was 117%.

Turning to `Cc1ccccc1-c1cnc(NS(C)(=O)=O)c(C(=O)N(C)C)c1` [CBK106430], the viability at 28.5 h, 10 µM worked out at 103%.

Regarding `O=C1CCC(=O)N1CCn1c(=O)n(S(=O)(=O)c2cccc(Cl)c2)c2ccccc21` [CBK106493], the viability at 28.5 h, 10 µM was found to be 93.1%.

As to `CCCS(=O)(=O)n1c(=O)n(CC(=O)c2ccccc2OC)c2ccccc21` [CBK106498], the viability at 28.5 h, 10 µM was 93.1%.

Consider `CCN(CC)c1ccc(C(=O)Cn2c(=O)n(C(=O)CCCc3ccc(OC)cc3)c3ccccc32)cc1` [CBK106503], for which the viability at 28.5 h, 10 µM was 89.6%.

Take `CCN(CC)c1ccc(C(=O)Cn2c(=O)n(S(=O)(=O)c3ccc4ccccc4c3)c3ccccc32)cc1` [CBK106505]: the viability at 28.5 h, 10 µM was 88.9%.

On to `COC(=O)c1ccccc1S(=O)(=O)n1c(=O)n(CCc2c[nH]c3ccccc23)c2ccccc21` [CBK106509], for which the viability at 28.5 h, 10 µM is 87.2%.

Consider `CC(C)c1ccc(S(=O)(=O)n2c(=O)n(CCc3c[nH]c4ccccc34)c3ccccc32)cc1` [CBK106518], for which the viability at 28.5 h, 10 µM was 87.4%.

With `CS(=O)(=O)c1cccc(C(=O)n2c(=O)n(CC3CCCCC3)c3ccccc32)c1` [CBK106520], the viability at 28.5 h, 10 µM is 103%.

For the molecule `COC(=O)CCCC(=O)n1c(=O)n(CC2CCCCC2)c2ccccc21` [CBK106524], the viability at 28.5 h, 10 µM was 112%.

For `O=c1n(CC2CCCCC2)c2ccccc2n1S(=O)(=O)c1ccc2ccccc2c1` [CBK106527], the viability at 28.5 h, 10 µM was 92.5%.

Consider `CS(=O)(=O)c1ccc(Cn2c(=O)n(S(=O)(=O)c3ccccc3)c3ccccc32)cc1` [CBK106530], for which the viability at 28.5 h, 10 µM worked out at 95.1%.

`CN(C)c1cccc2c(S(=O)(=O)n3c(=O)n(Cc4ccc(S(C)(=O)=O)cc4)c4ccccc43)cccc12` [CBK106535]: the viability at 28.5 h, 10 µM was 103%.

As for `COC(=O)CCCC(=O)n1c(=O)n(Cc2ccc(S(C)(=O)=O)cc2)c2ccccc21` [CBK106538], the viability at 28.5 h, 10 µM came out at 105%.

With `COc1ccc(Cn2c(=O)n(S(=O)(=O)c3ccc(C)cc3)c3ccccc32)cc1` [CBK106550], the viability at 28.5 h, 10 µM came to 95.1%.

Regarding `COc1ccc(Cn2c(=O)n(C(=O)CCc3cccc(OC)c3)c3ccccc32)cc1` [CBK106557], the viability at 28.5 h, 10 µM is 113%.

Take `COc1ccc(Cn2c(=O)n(S(=O)(=O)c3cccc(-c4nnc(C)o4)c3)c3ccccc32)cc1` [CBK106558]: the viability at 28.5 h, 10 µM worked out at 89.8%.

As for `CC(C)S(=O)(=O)n1c(=O)n(CC(=O)c2csc3ccccc23)c2ccccc21` [CBK106559], the viability at 28.5 h, 10 µM came out at 99.8%.

For `COc1cccc(CCC(=O)n2ccn(CCCOc3ccccc3)c2=O)c1` [CBK106565], the viability at 28.5 h, 10 µM was 104%.

With `Cc1ccccc1-n1ccn(S(=O)(=O)c2ccccc2)c1=O` [CBK106567], the viability at 28.5 h, 10 µM came to 86.7%.

As to `Cc1ccccc1-n1ccn(C(=O)CCC2CCCC2)c1=O` [CBK106571], the viability at 28.5 h, 10 µM turned out to be 106%.

Regarding `Cc1ccccc1-n1ccn(C(=O)CCCOc2ccc(Cl)cc2)c1=O` [CBK106573], the viability at 28.5 h, 10 µM was 88.5%.

Take `CS(=O)(=O)c1ccccc1C(=O)n1ccn(-c2cccc(C(F)(F)F)c2)c1=O` [CBK106584]: the viability at 28.5 h, 10 µM is 91.1%.

In the case of `O=c1n(-c2cccc(C(F)(F)F)c2)ccn1S(=O)(=O)c1ccc(N2CCOCC2)nc1` [CBK106590], the viability at 28.5 h, 10 µM was 104%.

As for `Cc1nnc(-c2cccc(S(=O)(=O)n3ccn(-c4cccc(C(F)(F)F)c4)c3=O)c2)o1` [CBK106592], the viability at 28.5 h, 10 µM worked out at 91.9%.

Take `Cc1nn(C)c(C)c1S(=O)(=O)n1ccn(-c2cccc(C(F)(F)F)c2)c1=O` [CBK106593]: the viability at 28.5 h, 10 µM was 98.7%.

With `COC(=O)c1ccc(S(=O)(=O)n2ccn(-c3cccc(C(F)(F)F)c3)c2=O)n1C` [CBK106594], the viability at 28.5 h, 10 µM was found to be 90.1%.

With `COc1ccc(-n2ccn(C(=O)CCC3CCCC3)c2=O)cc1` [CBK106595], the viability at 28.5 h, 10 µM was 90.4%.

For `COc1cccc(CCC(=O)n2ccn(-c3ccc(N(C)C)cc3)c2=O)c1` [CBK106609], the viability at 28.5 h, 10 µM came to 99%.

Consider `O=C(CCC1CCCC1)n1ccn(CCc2cccs2)c1=O` [CBK106611], for which the viability at 28.5 h, 10 µM is 97.6%.

Still in this data set, the particulars now being: human, hela cells, % viability, bulk resorufin, single well.
For `COc1ccc2[nH]cc(CC(=O)Nc3cccc(-c4ccc5c(c4)COC4(CCNCC4)O5)c3)c2c1` [CBK105859], the viability at 28.5 h, 10 µM turned out to be 78%.

Regarding `FC(F)(F)c1ccc(COc2cccc(-c3ccc4c(c3)COC3(CCNCC3)O4)c2)cc1` [CBK105868], the viability at 28.5 h, 10 µM is 83.7%.

(Values after article PMC12040169 (PLOS Biology, 2025).)
